Test results as given in patent US20240116994A1, “Peptides And Use Thereof For Diagnosing And Treating Antiphospholipid Syndrome” (UNIVERSITE DE GENEVE, priority 2021, published 2024).
Where no end group is shown, it is not given here.

Experiments:
[1] = system: binding of aPL to IIa-8.0-biot-2x; experiment: Inhibition experiments: remaining reactivity of pre-treated aPL on IIa-8.0-biot-2x ELISA; set-up: species or system Human; conditions: aPL preincubated 90 min at RT with beads 15, 30 and 60 pmol
Description: To examine the functional ability of IIa-5.0, IIa-7.1, IIa-8.0 peptides and R39-R43 to inhibit the activity of pool of aPL isolated from APS patients, the remaining reactivity of aPL was evaluated for IIa-8.0-biot-2x which had previously been treated with increasing concentration of peptides. […] The flag-type orientation prevents potential interactions with the plate or with itself, particularly in solution. Streptavidin magnetic beads associated with IIa-5.0-biot-2x, IIa-7.1-biot-2x and Ha-8.0-biot-2x peptides have been generated. aPL was treated with increasing concentrations of beads before to measure the remaining binding activity of aPL on IIa-8.0-biot-2x ELISA (FIG. 7C).
To assess the ability of IIa-5.0-2x, IIa-7.1-2x and IIa-8.0-2x to inhibit in vitro the binding of aPL to IIa-8.0-biot-2x. aPL pool sera were preincubated for 90 min at RT with increasing concentrations (1, 10 and 10011 g/ml) of monomeric, dimeric IIa-5.0, IIa-7.1 and IIa-8.0 peptides and of IIa-5.0-biot-2x, IIa-7.1-biot-2x and IIa-8.0-biot-2x-associated beads (15, 30 and 60 pmol). 120 pmol correspond to the amount of IIa-8.0-biot-2x coated in well of Streptavidin Coated High Capacity Plates 96 well plates (Thermofisher). After the pre-incubation time, the serum was added anti-b2GP1 IgG (anti-IIa-8.0-2x) ELISA according to the protocol.

[2] = system: aPL from a pool of 13 Human patients; experiment: Surface plasmon resonance, aPL flown over biotin-peptide-coated SA chip (BIAcore X100); assay type: binding
Description: The kinetics and affinity of protein-protein and protein-lipid interactions were determined using a BIAcore X100 instrument. 1 mg/ml of biotin-tagged peptide (ligand) was immobilized using a sensor chip SA (GE Healthcare) surface, whereas aPL from a pool of 13 Human patients were flown as analyte. The first flow cell of the sensor chip was used as a control surface (no protein), whereas the second flow cell was employed as the active surface. A range of dilution of aPL analytes prepared in the same buffer was injected on both flow cell surfaces at a flow rate of 30 μl/min. Association and dissociation times for each protein injection were set at 90 and 120 s, respectively. In all cases, sensorgrams were obtained from three different dilutions of aPL.
The de Groot's research group has pointed at the importance of hydrophobic character of the plate during coating of R39-R43 epitope. In order to abrogate of the plate-dependent aPL binding, the Ia-1 and Ib-1 peptides as well as the R39-R43 with a biotin at their N-terminal were synthetized and coated a streptavidin plate. In this configuration, the different peptides are flag oriented in the space preventing any interaction with the plate. It was thus observed that the flag-type orientation of R39-R43-biot leads to 8.52×more interaction with aPL while they show 9.63×more binding for Ib-1-biot presenting the same position. […] The surface plasmon resonance (SPR) technique is used to determine the relative avidity of aPL for R39-R43-biot and Ib-1-biot. The interaction between aPL and immobilized R39-R43-biot or Ib-1-biot is monitored by flowing various concentrations of aPL over a R39-R43-biot- or Ib-1-biot-coated chip surface (FIG. 1C). Through SPR experiments, it appears that aPL avidity for Ib-1-biot presents a resonance unit (RU) of 51.49 at 1/1,000 of dilution and a RU of 27.61 at 1/10,000 of dilution while, at the same dilution, it present a RU of 27.36 and a RU of 17.99 with R39-R43-biot, respectively (FIG. 1C). However, at higher concentrations, the peptides seems to show no differences in the interactions with aPL. […] Considering that IgG valency, it was decided to generate a dimeric Ib-1-biot peptide (Ib-1-biot-2x). This new polypeptide carries thus two optimized epitopes which have the opportunity to interact with two Fab fragment present on aPL. […] At higher concentration, i.e dilution of 1/100, the avidity for dimeric peptide is 28×more than for the monomeric (FIG. 1D).
It was performed a peptide substitution scan of Ib-1-biot VSRGGMRKKKKPLTG (SEQ ID NO: 6) carrying the optimized epitope Ib-1-biot and based on an exchange of the underlined amino acid positions with the 20 main amino acids. The resulting peptide microarrays contained 140 different peptides. It was observed that the peptide substitution of the position n° 1, 2, 12 and 15 have significant influences on the ability to interact with aPL from patients 1, 2, 3, 4 and, in particular, form the plasma pool. Indeed, the substitution of the position 1, 12 or 15 by an Arginine (R) or a Lysine (K) increases the avidity of the peptide for all aPL from patients. […] In this context, the enhancement relative to Ib-1.0-biot-2x of identified peptides was evaluated (FIG. 2A). […] However, streptavidin being known to produce unspecific binding, it was used the ratio between aPL and a pool of human plasma as control (B/B0) (FIG. 2B, upper panel). This representation therefore allows to distinguish the real levels of interactions. It was then performed a dilution assay from dilution of 1/100 to 1/1,200,000 and it was observed relevant differences between the different identified peptides. By comparison of area under the curve (AUC), it was possible to detect the most prone-interacting peptide with aPL. Thus, the peptide IIa-8.0-biot-2x obtained the higher AUC (FIG. 2B, bottom panel). […]

inhibition of aPL binding to IIa-8.0-biot-2x ELISA by peptide associated with streptavidin magnetic beads [1]: dose dependently inhibited
Substance: IIa-8.0-biot-2x: dimeric biotinylated IIa-8.0 peptide; also used associated with streptavidin magnetic beads (RSRGGMRKRKKPLTGRSRGGMRKRKKPLTG; also: dimeric peptide (two IIa-8.0 copies), biotinylated, site not given here)
SPR AUC relative to the initial target R39-43 [2]: > 10 × | avidity of aPL relative to avidity for Ib-1.0-biot-2x ([2]; all dilutions (FIG. 2C upper panel)): 1.3 × | SPR AUC relative to Ib-1.0-biot-2x ([2]; dilution 1/100 (FIG. 2C bottom panel)): 2.3 × | SPR AUC relative to Ib-1.0-biot-2x ([2]; dilution 1/1,000 (FIG. 2C bottom panel)): 3.43 × | SPR AUC relative to Ib-1.0-biot-2x ([2]; dilution 1/10,000 (FIG. 2C bottom panel)): 10.5 × | sustained interaction / stability of binding with aPL (shape of SPR curves) ([2]; stabilization curves): sustained stability of binding is also significantly increased
